Assay results reported in patent US8952024B2, “Herbicidal pyrimidone derivatives” (E I du Pont de Nemours and Company, priority 2009, dated 2015).

Experiments:
Format in all cases: in vivo
[1] = test system: deadnettle (henbit deadnettle, Lamium amplexicaule); assay: Test B pre-/postemergence plant response; conditions: Postemergence
Outline: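 Steps: sow seed in loam–sand soil and spray preemergence, or grow plants in peat-based medium to 1–4 leaves (2–18 cm) and spray postemergence; formulation is non-phytotoxic solvent plus surfactant; hold in greenhouse 13–15 days; score visually vs controls, 0 = no effect, 100 = complete control.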

[2] = test system: mallow (common mallow, Malva sylvestris); assay: Test D pre-/postemergence plant response
Outline: (§1)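 Pre + post applications; loam/sand soil; solvent + surfactant vehicle; post-em plants 1- to 4-leaf (2–18 cm); greenhouse 14–21 d; visual score 0 (none) to 100 (full control) vs untreated.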

[3] = test system: field bindweed (Convolvulus arvensis); assay: Test D pre-/postemergence plant response
Outline: as §1

[4] = test system: Italian ryegrass (Lolium multiflorum); assay: Test D pre-/postemergence plant response
Outline: as §1

[5] = test system: chickweed (common chickweed, Stellaria media); assay: Test D pre-/postemergence plant response; conditions: Postemergence
Outline: as §1

[6] = 31 g ai/ha, 0 to 100 scale (0 no effect, 100 complete control)
[7] = 62 g ai/ha, scale 0 to 100 (0 no effect, 100 complete control)
[8] = 125 g ai/ha, scale 0 to 100 (0 no effect, 100 complete control)
[9] = 250 g ai/ha, scale 0 to 100 (0 no effect, 100 complete control), 13 to 15 days
[10] = Postemergence, 125 g ai/ha, scale 0 to 100 (0 no effect, 100 complete control)
[11] = Postemergence, 31 g ai/ha, scale 0 to 100
[12] = Postemergence, 62 g ai/ha, scale 0 to 100 (0 no effect, 100 complete control)
[13] = Postemergence, 16 g ai/ha, scale 0 to 100
[14] = Preemergence, 16 g ai/ha, scale 0 to 100, 0 no effect, 100 complete control
[15] = Preemergence, 31 g ai/ha, scale 0 to 100 (0 no effect, 100 complete control)
[16] = Preemergence, 62 g ai/ha, scale 0 to 100
[17] = Preemergence, 125 g ai/ha, scale 0 to 100
[18] = Postemergence, 250 g ai/ha, scale 0 to 100 (0 no effect, 100 complete control)
[19] = 250 g ai/ha, scale 0 to 100 (0 no effect, 100 complete control)

| Compound | Plant response rating, Mallow [2, 10] | Plant response rating, Field Bindweed [3, 10] | Plant response rating, Ryegrass, Italian [4, 10] | Plant response rating, Chickweed [5, 8] | Plant response rating, Mallow [2, 11] | Plant response rating, Mallow [2, 12] | Plant response rating, Field Bindweed [3, 11] | Plant response rating, Field Bindweed [3, 12] | Plant response rating, Ryegrass, Italian [4, 11] | Plant response rating, Ryegrass, Italian [4, 12] | Plant response rating, Chickweed ([5]; 31 g ai/ha, scale 0 to 100) | Plant response rating, Mallow [2, 18] | Plant response rating, Field Bindweed [3, 18] | Plant response rating, Ryegrass, Italian [4, 18] | Plant response rating, Chickweed [5, 7] | Plant response rating, Chickweed [5, 19] | also measured |
| --- | --- | --- | --- | --- | --- | --- | --- | --- | --- | --- | --- | --- | --- | --- | --- | --- | --- |
| Cc1cc(-n2c(-c3cccc(F)c3)ncc(C(=O)C3=C(O)CCCC3=O)c2=O)ccc1F [Compound 191] |  |  |  |  |  |  |  |  |  |  |  |  |  |  |  |  | Plant response rating, Deadnettle [1, 6]: 90; Plant response rating, Deadnettle [1, 7]: 100; Plant response rating, Deadnettle [1, 8]: 100; Plant response rating, Deadnettle [1, 9]: 100 |
| O=C1CCCC(O)=C1C(=O)c1cnc(-c2ccc(F)cc2)n(C2CCCCC2)c1=O [Compound 197] |  |  |  |  |  |  |  |  |  |  |  |  |  |  |  |  | Plant response rating, Deadnettle [1, 6]: 100; Plant response rating, Deadnettle [1, 7]: 100; Plant response rating, Deadnettle [1, 8]: 100; Plant response rating, Deadnettle [1, 9]: 100 |
| COCCn1c(-c2ccsc2)ncc(C(=O)C2=C(O)C3CCC(C3)C2=O)c1=O (stereo not drawn) [Compound 228] | 65 | 70 | 5 | 75 |  |  |  |  |  |  |  |  |  |  |  |  |  |
| COCCn1c(-c2cccc(C)c2)ncc(C(=O)C2=C(O)C3CCC(C3)C2=O)c1=O (stereo not drawn) [Compound 233] | 0 | 70 | 5 | 60 | 0 | 0 | 50 | 50 | 0 | 5 | 50 |  |  |  |  |  | Plant response rating, Mallow [2, 13]: 0; Plant response rating, Mallow [2, 14]: 0; Plant response rating, Mallow [2, 15]: 0; Plant response rating, Mallow [2, 16]: 0; Plant response rating, Mallow [2, 17]: 60; Plant response rating, Field Bindweed [3, 13]: 10; Plant response rating, Field Bindweed [3, 14]: 0; Plant response rating, Field Bindweed [3, 15]: 0; Plant response rating, Field Bindweed [3, 16]: 85; Plant response rating, Field Bindweed [3, 17]: 85; Plant response rating, Ryegrass, Italian [4, 13]: 0; Plant response rating, Ryegrass, Italian [4, 14]: 0; Plant response rating, Ryegrass, Italian [4, 15]: 0; Plant response rating, Ryegrass, Italian [4, 17]: 20 |
| COCCn1c(-c2cccc(F)c2)ncc(C(=O)C2=C(O)C3CCC(C3)C2=O)c1=O (stereo not drawn) [Compound 235] | 70 | 65 | 5 | 60 | 10 | 50 | 60 | 65 | 5 | 5 | 5 | 70 | 70 | 35 | 30 | 70 |  |
| COCCCn1c(-c2cccc(F)c2)ncc(C(=O)C2=C(O)C3CCC(C3)C2=O)c1=O (stereo not drawn) [Compound 238] | 50 |  | 5 | 40 | 25 | 35 | 35 | 50 | 5 | 5 | 30 | 60 | 50 | 5 | 35 | 50 |  |
| CCCCn1c(-c2cc(F)cc(F)c2)ncc(C(=O)C2=C(O)C3CCC(C3)C2=O)c1=O (stereo not drawn) [Compound 245] | 50 | 60 | 20 | 50 | 35 | 50 | 50 | 50 | 5 | 5 | 5 | 70 | 70 | 50 | 25 | 50 |  |
